# Assays:
# [1] = system: mouse model of diabetic nephropathy; test: Sirius red stained kidney sections with digital morphometry, mouse model of diabetic nephropathy; type: in vivo; details: diabetic mice, IV 40 mg/kg three times weekly for four weeks; for Sirius red staining (interstitial collagen between renal tubules), histological appearance: FIG. 2, 40 mg/kg
# Method: Shown are low (×50) and high magnification (×200) pictures of the three experimental groups: 1) Normal mouse; 2) Diabetic mice treated with vehicle (phosphate buffered saline, treatment control); and 3) Diabetic mice treated with GR-MD-02/001 B (IV 40 mg/kg). The arrows point to a stained strand that indicates the presence of collagen type.
# Statistical comparisons of the percent Sirius red staining shown for the three experimental groups: 1) Normal mouse; 2) Diabetic mice treated with vehicle (phosphate buffered saline, treatment control); and 3) Diabetic mice treated with GR-MD-02/001 B (IV 40 mg/kg).
# (§1) The experimental model used in this example is the mouse in which diabetes was induced and a high fat diet was administered. Diabetes was induced immediately following birth with a single injection of streptozotocin. Four weeks later the mice were started on a high fat diet.
# (§2) Diabetic mice were treated either with vehicle (phosphate buffered saline) or GR-MD-02/001B given intravenously in a dose of 40 mg/kg three times weekly for four weeks total. There were eight (8) mice in each group. Two normal mice were also utilized as a comparison group.
# Sirius red reagent is used as a stain to evaluate the increase in extracellular matrix material in the interstitium between tubular cells. Minimal red staining is seen in the normal animals. However, there is an increase in staining seen in the vehicle treated control animals.
# Thirty two (32) separate slides from each group were blindly evaluated by quantitative digital morphometry for the percent staining with Sirius red.
# [2] = system: mouse model of diabetic nephropathy; test: PAS stained kidney sections, mouse model of diabetic nephropathy; type: in vivo; details: diabetic mice, IV 40 mg/kg three times weekly for four weeks
# Method: Shown are low (×200) and high magnification (×400) pictures of the three experimental groups: 1) Normal mouse; 2) Diabetic mice treated with vehicle (phosphate buffered saline, treatment control); and 3) Diabetic mice treated with GR-MD-02/001 B (IV 40 mg/kg). The arrows point to a glomerulus.
# as §1, §2
# The diabetic mice had clear histological evidence of diabetic nephropathy as shown in pictures of PAS stained kidney sections in FIG. 1. […] In the vehicle treated control animals there is a clear increase in mesangial basement membrane material (the pink extracellular matrix) over the normal animals.
substance,measurement,setting,value
galactoarabino-rhamnogalacturonate [GR-MD-02/001B],Percent Sirius red staining by quantitative digital morphometry compared to vehicle treated controls,"[1]; 32 slides per group, levels nearly the same as normal mice, FIG. 3",statistically significant decrease
same,"Sirius red staining (interstitial collagen between renal tubules), histological appearance",[1],marked reduction
same,"Sirius red staining (interstitial collagen between renal tubules), histological appearance",[1]; listed as GR-MD02/001B,reduced the deposition of matrix
same,"Mesangial extracellular matrix material (PAS stain, glomerulus) compared to vehicle treated control animals",[2]; FIG. 1,marked decrease
same,"Mesangial extracellular matrix material (PAS stain, glomerulus) compared to vehicle treated control animals","[2]; FIG. 1, listed as GR-MD02/001B",reduced the mesangial expansion of extracellular matrix

# From patent publication US8828971B2, “Galactose-pronged carbohydrate compounds for the treatment of diabetic nephropathy and associated disorders” (Galectin Therapeutics, Inc., priority 2012, dated 2014)
